Laboratory results as given in patent EP1611148B1, “NOVEL NITRILE GLYCOSIDE USEFUL AS A BIO-ENHANCER OF DRUGS AND NUTRIENTS, PROCESS OF ITS ISOLATION FROM MORINGA OLEIFERA” (Council of Scientific and Industrial Research, priority 2003, dated 2004).

How the values were obtained:
Staphylococcus aurues = details: in combination with 5-Methoxy hydnocarpin (5-MHC); cited from earlier work
[1] = anaesthetized rat, 1-10 mg/ kg I.V; cited from earlier work
E.coli (CA8000) = details: 6 ug/mL
B subtilis (MTCC121) = test: Bioactivity enhancement of antibiotics (killing efficiency, broth assay) against B subtilis; details: alone or with Niaziridin @ 1.0 µg/ml
M smegmatis (MC^2 155) = test: Bioactivity enhancement of antibiotics (killing efficiency, broth assay) against M smegmatis; details: alone or with Niaziridin @ 1.0 µg/ml
C.albicans = test: Enhancement of anticandidial activity of clotrimazole (broth assay)
[2] = test system: M.tuberculosis H37Rv (ATCC 27294); test: Bioactivity enhancement of anti-tubercular drugs, radiometric BACTEC 460 TB system; type: cell-based, Mycobacterium tuberculosis
Source text: Since, the bioenhancer compound was able to enhance the activity of antibiotics against Gram (+) bacteria such as M.smegmatis, our subsequent interest was to test the compound against M.tuberculosis H37Rv (ATCC 27294) (Philipp et al 1996; Proc.Natl.Acad.Sci USA 93, 3132-3137), the causal organism of tuberculosis. To accomplish this we employed a radiometric assay using the BACTEC 460 TB system manufactured by M/S Becton Dickinson Ltd., USA. The antimycobacterial property of the drugs in combination with the bioenhancer was studied as per the recommended drug sensitivity protocol prescribed by the manufacturer (BACTEC 460 TB system: Product & Procedure Manual, MA 0029, 1996; Becton Dickinson Co., USA). Briefly the procedure is described below. • (a) The 12 B vials as provided by the manufacture were pre-tested prior to inoculation to establish the recommended CO2 atmosphere. […] After mixing thoroughly, 0.1 ml of this dilution was added into the control 12 B vial (without a drug). • (d) Biosafety precautions were taken as recommended by the manufacturer. • (e) Vials were tested daily in BACTEC 460 TB system for 12 days at approximately the same time each day as recommended by the manufacturer. The mycobacterial growth is expressed as Growth Index (GI) and compared to that of the control vials (antibiotic alone).

[3] = Bioavailability test using gastro-intestinal epithelium (U-tube); type: in vitro ADME, goat; details: Vitamine B 12, in combination; Figure 3
Source text: Specially designed U-tubes of glass consisting of two components (opposite-L type) were used in which one open end of an L-shaped was tapered to fit within the end of the other L-tube (as described in US Patent # 6,410,059). The membrane of goat gut (initial part) was stretched and fixed to act as the barrier between the two ends such that by joining the two L-tubes, a U-tube was made. Sterile distilled water was then filled in both the sides to equal height/level. The antibiotic/compound was added to the donor tube (tapered) and through spectro-photometer, the transfer of molecule was observed using UV and visible absorption maxima of the respective molecules by taking the OD at defined wavelengths (264 nm for isoniazid).

[4] = test system: Escherichia coli, CA 8000; test: Enhancement of adsorption of λ phage on bacteria; details: cells pretreated with niaziridin @ 1 ug/ml
Procedure: Overnight grown bacterial culture (Escherichia coli, CA 8000) was divided into 5 ml of aliquot each in screw cap tubes. One of the tube with the bacterial culture was treated with niaziridin to a final concentration of 1µg/ml. Both the control and the treated tubes were incubated at 37°C for 4 hours. The cultures were then infected with λ phage (MOI=10) for 10minutes at 37°C (for adsorption) followed by centrifugation at 10000 RPM for 10 minutes at 4°C.
The supernatant and the pellets for both treated and untreated cultures were then compared for the phage titer by plating on top agar containing sensitive bacteria at different dilutions.

E.coli DH5α = test: Enhancement of bacterial transformation with pUC18 plasmid DNA, strain DH5α
Procedure: Overnight grown bacterial E.coli DH5α (Sambrook at al^28) cells were diluted to 10 folds in growth medium and treated with niaziridin @1-10µg/ml for 4 hours at 37°C in a shaker (200 RPM).
These log phase cells were then treated with calcium chloride to induce competence and then transformed with pUC18 plasmid DNA and plated on Luria agar plates containing 100µg/ml ampicillin.
The colonies thus appeared, on the plates for both treated and untreated cultures were scored.

E.coli CA8000 = test: Enhancement of bacterial transformation with pUC18 plasmid DNA, strain CA8000
[5] = cells pre treated with niaziridin at 1 ug/ml
[6] = cells pre treated with niaziridin at 10 ug/ml

COc1ccc2cc3[n+](cc2c1OC)CCc1cc2c(cc1-3)OCO2 [berberine]
increase of antimicrobial activity of berberine (Staphylococcus aurues): 200 folds

niaziminin B
hypotensive and bradycardiac effect [1]: produced hypotensive and bradycardiac effect

CC1(C)S[C@@H]2[C@H](NC(=O)[C@H](N)c3ccccc3)C(=O)N2[C@H]1C(=O)O [Amp, ampicillin]
% Survival (E.coli (CA8000)): 3.69% | Titre (B subtilis (MTCC121); Amp (0.01)): 2.9x10^8 | Titre (M smegmatis (MC^2 155); Amp (0.1)): 1.0x10^8

CO[C@H]1/C=C/O[C@@]2(C)Oc3c(C)c(O)c4c(O)c(c(/C=N/N5CCN(C)CC5)c(O)c4c3C2=O)NC(=O)/C(C)=C\C=C\[C@H](C)[C@H](O)[C@@H](C)[C@@H](O)[C@@H](C)[C@H](OC(C)=O)[C@@H]1C [Rif, rifampicin]
Titre (B subtilis (MTCC121); Rif (0.05)): 2.1x10^8 | Titre (M smegmatis (MC^2 155); Rif (0.05)): 1.3x10^7

CCOC(=S)NCc1ccc(OC2OC(C)C(O)C(O)C2O)cc1 (centres unmarked) [niazimicin]
hypotensive and bradycardiac effect [1]: produced hypotensive and bradycardiac effect

Clc1ccccc1C(c1ccccc1)(c1ccccc1)n1ccnc1 [Clotrimazole, clotrimazole]
Cfu / ml at 36 h (C.albicans; clotrimazole 0.5ug/ml, alone or with Niaziridin 10ug/ml, 36 h): 23.6 x 10^5 Cfu / ml

niaziridin
enhancement of antimycobacterial activity of isoniazid (Growth Index) ([2]; in combination with isoniazid, Figure 2): able to enhance the antimycobacterial activity | enhancement of antimycobacterial activity of rifampicin (Growth Index) ([2]; in combination with rifampicin, Figure 1): able to enhance the antimycobacterial activity | uptake of nutrients through the intestinal gut membrane [3]: able to facilitate the uptake of nutrients like Vitamine B 12 through the intestinal gut membrane | Pellet (10^7pfu) ([4]; MOI 5): 7.7 10^7pfu | Supernatant (10^7pfu) ([4]; MOI 5): 7.7 10^7pfu | Pellet (10^7pfu) ([4]; MOI 10): 18.0 10^7pfu | Supernatant (10^7pfu) ([4]; MOI 10): 8.0 10^7pfu | enhancement of the antifungal activity of clotrimazole (C.albicans; in combination, observed only at 10ug/ml of the compound): 5-6 folds | Fold enhancement in DNA transformation (E.coli DH5α; [5]): 1.9 Fold | Titre (10^4) (E.coli DH5α; [5]): 16.0 10^4 | Fold enhancement in DNA transformation (E.coli DH5α; [6]): 2.3 Fold | Titre (10^4) (E.coli DH5α; [6]): 20.0 10^4 | Fold enhancement in DNA transformation (E.coli CA8000; [5]): 1.9 Fold | Titre (10^3) (E.coli CA8000; [5]): 8.30 10^3 | Fold enhancement in DNA transformation (E.coli CA8000; [6]): 5.5 Fold | Titre (10^3) (E.coli CA8000; [6]): 24.0 10^3

niazinin B
hypotensive and bradycardiac effect [1]: produced hypotensive and bradycardiac effect

COC(=S)NCc1ccc(O[C@@H]2O[C@@H](C)[C@H](O)[C@@H](O)[C@H]2O)cc1 [niazinin A]
hypotensive and bradycardiac effect [1]: produced hypotensive and bradycardiac effect

niaziminin A
hypotensive and bradycardiac effect [1]: produced hypotensive and bradycardiac effect

CN(C)[C@@H]1C(=O)C(C(N)=O)=C(O)[C@@]2(O)C(=O)C3=C(O)c4c(O)cccc4[C@@](C)(O)[C@H]3C[C@@H]12 [Tet, tetracycline]
Titre (B subtilis (MTCC121); Tet (1.0)): 7.0x10^7 | Titre (M smegmatis (MC^2 155); Tet (2.0)): 1.2x10^8

CCn1cc(C(=O)O)c(=O)c2ccc(C)nc21 [Nal, nalidixic acid]
Titre (B subtilis (MTCC121); Nal (2.0)): 3.1x10^7 | Titre (M smegmatis (MC^2 155); Nal (1.0)): 3.7x10^8
